Laboratory results published in US11149066B2, “Thrombospondin 1-binding peptide” (DAIICHI SANKYO COMPANY, LIMITED, priority 2016, dated 2021).
Positions of bridges follow the written chain, without caps; N, C: chain ends. Non-standard residues stand in square brackets, D forms with d. Residues, ends and D or L forms follow the SMILES beside them. Trp(6-Cl) = N[C@@H](Cc1c[nH]c2cc(Cl)ccc12)C(=O)O; Phe(3,4-Cl2) = N[C@@H](Cc1ccc(Cl)c(Cl)c1)C(=O)O; 2Nal = N[C@@H](Cc1ccc2ccccc2c1)C(=O)O

Biological target: human TSP1 (Homo sapiens, UniProt P07996)
Experiment: Cell adhesion inhibition assay (HUVEC adhesion to TSP1-coated plate)
Format: cell-based
Conditions: HUVEC adhesion to human platelet thrombospondin-coated plate, 2.5 hours, CellTiter-Glo; read-out: Cell adhesion IC50
Description: As referred to herein, the TSP1 inhibitory activity refers to the activity to inhibit one or more effects of TSP1, including angiostatic effect. The TSP1 inhibitory activity is measured by a cell adhesion inhibition assay using human TSP1 and vascular endothelial cells as described hereinbelow in the Examples section. In this assay, when the 50% inhibitory concentration (IC5O) of a test substance is 200 nM or less, the test substance is determined to have TSP1 inhibitory activity.
(Test Example 1) Cell Adhesion Inhibition Assay
I. Materials and Reagents
96 well Non-treated White with clear bottom (Coster, 3632)
BrightMax adhesive sealing films (EXCEL Scientific, WT50)
Proteosave®SS 15 mL (Sumitomo Bakelite, MS-52150)
Thrombospondin human platelet (Calbiochem, 605225)
EGM-2 MV (Lonza, CC-3202): for HUVEC passaging
Collagen coated dish (IWAKI, 4020-010): for HUVEC passaging
Lipidure®-BL802 (NOF Corporation), 5% solution
Albumin solution (35%) fraction V from Bovine (Sigma, A7979)
CellTiter-Glo (Promega, G7572)
Thrombospondin 1 vial (25 μg) was dissolved in TBS (+2 mM CaCl2; the same shall apply hereunder) to make a 200 μg/mL solution, which was diluted with TBS to a concentration of 10 μg/mL in Proteosave® 15 mL tube. The 10 μg/mL solution was dispensed into a 96 well plate at a volume of 50 μL/well (no reservoir was used since the protein easily adsorbs on it), and the plate was left to stand at 4° C. overnight.
Lipidure® was diluted 10-fold with TBS to make a 0.5% solution. After a buffer was discarded from the plate that had been coated at the step of <Plate coat> as described above, the 0.5% solution was dispensed into all wells to be used at a volume of 100 μL/well, and the plate was left to stand at room temperature for 1 hour.
A 0.2 μM solution of each sample was prepared using a dilution buffer (DMEM+0.5% BSA). 2 μL of the 0.2 μM solution was diluted with 500 μL, of dilution buffer to prepare a diluted sample. As a vehicle control, DMSO was diluted in the same way as the samples.
A blocking solution was discarded from the plate that had been treated at the step of <Plate blocking> as described above, and the plate was washed three times with 150 μL/well of TBS. The washing solution used for the third washing was completely sucked out by an aspirator, and the diluted sample was dispensed into the plate at a volume of 50 μL/well. Then, the plate was left to stand at room temperature for 15 to 30 minutes.
To maintain HUVECs, EGM2-MV and a collagen coated dish were used (the cells were ceased to be used after 10th or 1 lth passage since the cell proliferation rate declined at this stage). The cells were dispersed with 0.05% Trypsin/EDTA, harvested in DMEM/0.5% BSA, and centrifuged at 1000 rpm for 3 minutes. After removal of supernatant, the cells were washed once with a DMEM buffer. The cells were resuspended in a DMEM buffer, counted for cell number, and diluted to 10000 cells/50 μL. The cell suspension was dispensed at a volume of 50 μL/well into the plate into which the sample had been dispensed, mixed gently, and incubated at 37° C. for 2.5 hours.
After cell adhesion was confirmed, the culture medium was completely removed by an aspirator, and 100 μL/well of DMEM/0.5% BSA was gently dispensed. Then, DMEM/0.5% BSA was completely removed by an aspirator, and 50 μL/well of DMEM/0.5% BSA was dispensed. After a white seal was applied to the bottom of the plate, 50 μL/well of CellTiter-Glo® was dispensed, and the solution was stirred for 2 minutes and left to stand at room temperature for 8 minutes. […] was detected using EnVision Xcite Multilabel Reader (produced by Perkin Elmer).
On the basis of the measured fluorescence values, the IC50 values (nM) of the different macrocyclic polypeptides for inhibition of cell adhesion were calculated.

Chain of human TSP1 (P07996 19-1170 limits assumed): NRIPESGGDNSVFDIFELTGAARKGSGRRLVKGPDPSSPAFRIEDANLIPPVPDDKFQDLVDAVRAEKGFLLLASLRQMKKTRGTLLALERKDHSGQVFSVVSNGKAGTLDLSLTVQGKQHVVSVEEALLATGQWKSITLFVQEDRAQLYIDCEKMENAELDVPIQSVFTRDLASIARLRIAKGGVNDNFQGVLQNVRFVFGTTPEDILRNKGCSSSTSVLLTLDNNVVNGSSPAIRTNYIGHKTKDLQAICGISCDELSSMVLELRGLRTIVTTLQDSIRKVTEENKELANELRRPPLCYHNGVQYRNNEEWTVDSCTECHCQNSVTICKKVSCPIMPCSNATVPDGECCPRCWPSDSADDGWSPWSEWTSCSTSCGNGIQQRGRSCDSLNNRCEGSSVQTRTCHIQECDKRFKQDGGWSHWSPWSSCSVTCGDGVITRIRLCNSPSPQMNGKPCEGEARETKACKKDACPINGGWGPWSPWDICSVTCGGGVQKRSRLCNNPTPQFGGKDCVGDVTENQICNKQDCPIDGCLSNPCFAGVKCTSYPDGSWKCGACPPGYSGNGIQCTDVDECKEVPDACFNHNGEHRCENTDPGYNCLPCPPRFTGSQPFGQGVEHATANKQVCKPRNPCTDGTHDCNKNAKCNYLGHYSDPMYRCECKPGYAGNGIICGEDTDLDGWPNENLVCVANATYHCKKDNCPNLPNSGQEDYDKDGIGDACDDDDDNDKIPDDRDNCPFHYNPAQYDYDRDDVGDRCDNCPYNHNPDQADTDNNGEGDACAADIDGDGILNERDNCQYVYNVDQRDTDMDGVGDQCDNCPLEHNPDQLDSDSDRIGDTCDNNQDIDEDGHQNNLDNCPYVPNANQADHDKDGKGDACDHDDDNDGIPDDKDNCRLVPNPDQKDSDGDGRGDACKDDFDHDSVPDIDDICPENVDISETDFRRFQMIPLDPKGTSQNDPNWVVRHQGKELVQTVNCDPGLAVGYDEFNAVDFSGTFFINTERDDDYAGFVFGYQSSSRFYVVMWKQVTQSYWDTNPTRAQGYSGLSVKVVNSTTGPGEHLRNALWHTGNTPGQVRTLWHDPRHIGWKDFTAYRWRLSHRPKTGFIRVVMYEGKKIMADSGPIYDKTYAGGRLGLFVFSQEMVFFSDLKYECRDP

IC50 [nM] | Compound
34 | CC[C@H](C)[C@@H]1NC(=O)[C@H](Cc2ccccc2)NC(=O)CSC[C@@H](C(N)=O)NC(=O)[C@H](C(C)C)NC(=O)[C@H](Cc2c[nH]c3ccccc23)NC(=O)[C@H](C(C)C)NC(=O)[C@H](C(C)C)NC(=O)[C@H](Cc2c[nH]c3ccccc23)NC(=O)[C@H](CC(N)=O)NC(=O)[C@H](CCCNC(=N)N)NC(=O)CNC(=O)[C@H](CO)NC1=O [Compound 1] ({CH2CO}-FISGRNWVVWVC-NH2; thioether N-12)
33.4 | CC[C@H](C)[C@@H]1NC(=O)[C@H](Cc2ccccc2)NC(=O)CSC[C@@H](C(N)=O)NC(=O)[C@H](CCCNC(=N)N)NC(=O)[C@H](Cc2c[nH]c3ccccc23)NC(=O)[C@H](CCCNC(=N)N)NC(=O)[C@H](C(C)C)NC(=O)[C@H](Cc2c[nH]c3ccccc23)NC(=O)[C@H](CC(N)=O)NC(=O)[C@H](CCCNC(=N)N)NC(=O)CNC(=O)[C@H](CO)NC1=O [Compound 5]
33.4 | CC(C)[C@@H]1NC(=O)[C@H](Cc2c[nH]c3ccccc23)NC(=O)[C@H](CCCNC(=N)N)NC(=O)[C@H](C(C)C)NC(=O)[C@H](Cc2c[nH]c3ccccc23)NC(=O)[C@H](CC(N)=O)NC(=O)[C@H](CCCNC(=N)N)NC(=O)CNC(=O)[C@H](CO)NC(=O)[C@H](CCCNC(=N)N)NC(=O)[C@H](Cc2ccccc2)NC(=O)CSC[C@@H](C(N)=O)NC1=O [Compound 8] ({CH2CO}-FRSGRNWVRWVC-NH2; thioether N-12)
27.3 | CC[C@H](C)[C@@H]1NC(=O)[C@H](Cc2c[nH]c3ccccc23)NC(=O)CSC[C@@H](C(N)=O)NC(=O)[C@H](C(C)C)NC(=O)[C@H](Cc2c[nH]c3ccccc23)NC(=O)[C@H](CCCCN)NC(=O)[C@H](C(C)C)NC(=O)[C@H](Cc2c[nH]c3ccccc23)NC(=O)[C@H](CC(N)=O)NC(=O)[C@H](CCCNC(=N)N)NC(=O)CNC(=O)[C@H](CO)NC1=O [Compound 9] ({CH2CO}-WISGRNWVKWVC-NH2; thioether N-12)
26 | CC[C@H](C)[C@@H]1NC(=O)[C@H](Cc2c[nH]c3ccccc23)NC(=O)CSC[C@@H](C(N)=O)NC(=O)[C@H](C(C)C)NC(=O)[C@H](Cc2c[nH]c3ccccc23)NC(=O)[C@H](CCCNC(=N)N)NC(=O)[C@H](C(C)C)NC(=O)[C@H](Cc2c[nH]c3ccccc23)NC(=O)[C@H](CC(N)=O)NC(=O)[C@H](CCCNC(=N)N)NC(=O)CNC(=O)[C@H](CO)NC1=O [Compound 11] ({CH2CO}-WISGRNWVRWVC-NH2; thioether N-12)
21 | CC[C@H](C)[C@@H]1NC(=O)[C@H](Cc2c[nH]c3ccccc23)NC(=O)CSC[C@@H](C(N)=O)NC(=O)[C@H](C(C)C)NC(=O)[C@H](Cc2c[nH]c3ccccc23)NC(=O)[C@H](CCCCN)NC(=O)[C@H](C(C)C)NC(=O)[C@H](Cc2c[nH]c3ccccc23)NC(=O)[C@H](CC(N)=O)NC(=O)[C@H](CCCCN)NC(=O)CNC(=O)[C@H](CO)NC1=O [Compound 16] ({CH2CO}-WISGKNWVKWVC-NH2; thioether N-12)
13 | CC[C@H](C)[C@@H]1NC(=O)[C@H](Cc2ccccc2)NC(=O)CSC[C@@H](C(N)=O)NC(=O)[C@H](C(C)C)NC(=O)[C@H](Cc2c[nH]c3ccccc23)NC(=O)[C@H](CCCCN)NC(=O)[C@H](C(C)C)NC(=O)[C@H](Cc2c[nH]c3ccccc23)NC(=O)[C@H]([C@@H](C)O)NC(=O)[C@H](CCCCN)NC(=O)CNC(=O)[C@H](CO)NC1=O [Compound 18] ({CH2CO}-FISGKTWVKWVC-NH2; thioether N-12)
14 | CC[C@H](C)[C@@H]1NC(=O)[C@H](Cc2ccccc2)NC(=O)CSC[C@@H](C(N)=O)NC(=O)[C@H](C(C)C)NC(=O)[C@H](Cc2c[nH]c3ccccc23)NC(=O)[C@H](CCCCN)NC(=O)[C@H](CCSC)NC(=O)[C@H](Cc2c[nH]c3ccccc23)NC(=O)[C@H](CC(N)=O)NC(=O)[C@H](CCCCN)NC(=O)CNC(=O)[C@H](CO)NC1=O [Compound 19] ({CH2CO}-FISGKNWMKWVC-NH2; thioether N-12)
13 | CC[C@H](C)[C@@H]1NC(=O)[C@H](Cc2c[nH]c3ccccc23)NC(=O)CSC[C@@H](C(N)=O)NC(=O)[C@H](C(C)C)NC(=O)[C@H](Cc2c[nH]c3ccccc23)NC(=O)[C@H](CCCCN)NC(=O)[C@H](C(C)C)NC(=O)[C@H](Cc2c[nH]c3ccccc23)NC(=O)[C@H]([C@@H](C)O)NC(=O)[C@H](CCCCN)NC(=O)CNC(=O)[C@H](CO)NC1=O [Compound 20] ({CH2CO}-WISGKTWVKWVC-NH2; thioether N-12)
15.6 | CC[C@H](C)[C@@H]1NC(=O)[C@H](Cc2c[nH]c3ccccc23)NC(=O)CSC[C@@H](C(N)=O)NC(=O)[C@H](C(C)C)NC(=O)[C@H](Cc2c[nH]c3ccccc23)NC(=O)[C@H](CCCCN)NC(=O)[C@H](C(C)C)NC(=O)[C@H](Cc2c[nH]c3ccccc23)NC(=O)[C@H]([C@@H](C)O)NC(=O)[C@H](CCCNC(=N)N)NC(=O)CNC(=O)[C@H](CO)NC1=O [Compound 23] ({CH2CO}-WISGRTWVKWVC-NH2; thioether N-12)
16.7 | CC[C@H](C)[C@@H]1NC(=O)[C@H](Cc2ccc3ccccc3c2)NC(=O)CSC[C@@H](C(N)=O)NC(=O)[C@H](C(C)C)NC(=O)[C@H](Cc2c[nH]c3ccccc23)NC(=O)[C@H](CCCCN)NC(=O)[C@H](C(C)C)NC(=O)[C@H](Cc2c[nH]c3ccccc23)NC(=O)[C@H](CC(N)=O)NC(=O)[C@H](CCCNC(=N)N)NC(=O)CNC(=O)[C@H](C)NC1=O [Compound 30] ({CH2CO}-[2Nal]IAGRNWVKWVC-NH2; thioether N-12)
20.7 | CC(C)[C@@H]1NC(=O)[C@H](Cc2c[nH]c3ccccc23)NC(=O)[C@H](CCCCN)NC(=O)[C@H](C(C)C)NC(=O)[C@H](Cc2c[nH]c3ccccc23)NC(=O)[C@H](CC(N)=O)NC(=O)[C@H](CCCNC(=N)N)NC(=O)CNC(=O)[C@H](CO)NC(=O)[C@H](Cc2c[nH]c3ccccc23)NC(=O)[C@H](Cc2ccc3ccccc3c2)NC(=O)CSC[C@@H](C(N)=O)NC1=O [Compound 33] ({CH2CO}-[2Nal]WSGRNWVKWVC-NH2; thioether N-12)
28.1 | CC(C)[C@@H]1NC(=O)[C@H](Cc2c[nH]c3ccccc23)NC(=O)[C@H](CCCCN)NC(=O)[C@H](C(C)C)NC(=O)[C@H](Cc2c[nH]c3ccccc23)NC(=O)[C@H](CC(N)=O)NC(=O)[C@H](CCCNC(=N)N)NC(=O)CNC(=O)[C@H](CO)NC(=O)[C@H](Cc2ccc3ccccc3c2)NC(=O)[C@H](Cc2ccc(Cl)c(Cl)c2)NC(=O)CSC[C@@H](C(N)=O)NC1=O [Compound 34] ({CH2CO}-[Phe(3,4-Cl2)][2Nal]SGRNWVKWVC-NH2; thioether N-12)
26 | CC[C@H](C)[C@@H]1NC(=O)[C@H](Cc2ccc3ccccc3c2)NC(=O)CSC[C@@H](C(N)=O)NC(=O)[C@H](C(C)C)NC(=O)[C@H](Cc2c[nH]c3ccccc23)NC(=O)[C@H](CCCCN)NC(=O)[C@H](C(C)C)NC(=O)[C@H](Cc2c[nH]c3cc(Cl)ccc23)NC(=O)[C@H](CC(N)=O)NC(=O)[C@H](CCCNC(=N)N)NC(=O)CNC(=O)[C@H](CO)NC1=O [Compound 35] ({CH2CO}-[2Nal]ISGRN[Trp(6-Cl)]VKWVC-NH2; thioether N-12)
17.2 | CC[C@H](C)[C@@H]1NC(=O)[C@H](Cc2ccc3ccccc3c2)NC(=O)CSC[C@@H](C(N)=O)NC(=O)[C@H](C(C)C)NC(=O)[C@H](Cc2c[nH]c3cc(Cl)ccc23)NC(=O)[C@H](CCCCN)NC(=O)[C@H](C(C)C)NC(=O)[C@H](Cc2c[nH]c3ccccc23)NC(=O)[C@H](CC(N)=O)NC(=O)[C@H](CCCNC(=N)N)NC(=O)CNC(=O)[C@H](CO)NC1=O [Compound 36] ({CH2CO}-[2Nal]ISGRNWVK[Trp(6-Cl)]VC-NH2; thioether N-12)
